Reference: patent US20050245455A1, “Gonadotropin releasing hormone antagonists in gel-forming concentrations” (priority 2001, published 2005)
Where a SMILES comes first, the peptide text is derived from it. [ ]: non-standard residue; d: D form. The star is where a group is joined. dPhe(4-NHCONH2) = NC(=O)Nc1ccc(C[C@@H](N)C(=O)O)cc1; Dihydroorotyl(S) = O=C1C[C@@H](C(=O)*)NC(=O)N1; dPhe(4-Cl) = N[C@H](Cc1ccc(Cl)cc1)C(=O)O; Phe(4-NH2) = Nc1ccc(C[C@H](N)C(=O)O)cc1; d2Nal = N[C@H](Cc1ccc2ccccc2c1)C(=O)O; Lys(iPr) = CC(C)NCCCC[C@H](N)C(=O)O; d3Pal = N[C@H](Cc1cccnc1)C(=O)O

Settings: dog, in vivo, sc

Fraction of the total dose absorbed, subcutaneous compared to intramuscular administration: almost twice as high
SMILES: CC(=O)N[C@H](Cc1ccc2ccccc2c1)C(=O)N[C@H](Cc1ccc(Cl)cc1)C(=O)N[C@H](Cc1cccnc1)C(=O)N[C@@H](CO)C(=O)N[C@@H](Cc1ccc(NC(=O)[C@@H]2CC(=O)NC(=O)N2)cc1)C(=O)N[C@H](Cc1ccc(NC(N)=O)cc1)C(=O)N[C@@H](CC(C)C)C(=O)N[C@@H](CCCCNC(C)C)C(=O)N1CCC[C@H]1C(=O)N[C@H](C)C(N)=O [Peptide 1, Ac-DNal-DCpa-DPal-Ser-Aph(L-Hor)-DAph(CONH2)-Leu-Lys(iPr)-Pro-DAla-NH2] (Ac-[d2Nal][dPhe(4-Cl)][d3Pal]S[Phe(4-NH2)](Dihydroorotyl(S))[dPhe(4-NHCONH2)]L[Lys(iPr)]P[dA]-NH2)
